The supplement of paper PMC11451515

Test system: NOMO1
Test: cell viability relative to DMSO control; higher = less cytotoxic
Conditions: 48 h
Outline: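 NOMO1 or SEM (500 cells/well) or P12-Ichikawa (1000 cells/well) leukemia cells were adapted for at least four passages in each medium. They were seeded in 1536-well plates (5 μl) and pin-dosed with library compounds in DMSO over an 11-point threefold series, 47 μM to 0.79 nM. CellTiter-Glo One luminescence was read after 48 h at 37°C. Viability is the per-plate percentage relative to DMSO wells, with cell-free wells as background.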

[1] = HPLM + 10% dialyzed FBS, 0.000781 µM
[2] = HPLM + 10% dialyzed FBS, 0.00234 µM
[3] = HPLM + 10% dialyzed FBS, 0.00702 µM
[4] = HPLM + 10% dialyzed FBS, 0.0211 µM
[5] = HPLM + 10% dialyzed FBS, 0.0632 µM
[6] = HPLM + 10% dialyzed FBS, 0.19 µM
[7] = HPLM + 10% dialyzed FBS, 0.569 µM
[8] = HPLM + 10% dialyzed FBS, 1.71 µM
[9] = HPLM + 10% dialyzed FBS, 5.12 µM
[10] = HPLM + 10% dialyzed FBS, 15.4 µM
[11] = HPLM + 10% dialyzed FBS, 46.1 µM
[12] = RPMI 5 mM glucose + 10% FBS, 0.000781 µM
[13] = RPMI 5 mM glucose + 10% FBS, 0.00234 µM
[14] = RPMI 5 mM glucose + 10% FBS, 0.00702 µM
[15] = RPMI 5 mM glucose + 10% FBS, 0.0211 µM
[16] = RPMI 5 mM glucose + 10% FBS, 0.0632 µM
[17] = RPMI 5 mM glucose + 10% FBS, 0.19 µM
[18] = RPMI 5 mM glucose + 10% FBS, 0.569 µM
[19] = RPMI 5 mM glucose + 10% FBS, 1.71 µM
[20] = RPMI 5 mM glucose + 10% FBS, 5.12 µM
[21] = RPMI 5 mM glucose + 10% FBS, 15.4 µM
[22] = RPMI 5 mM glucose + 10% FBS, 46.1 µM
[23] = RPMI 5 mM glucose + 10% dialyzed FBS, 0.000781 µM
[24] = RPMI 5 mM glucose + 10% dialyzed FBS, 0.00234 µM
[25] = RPMI 5 mM glucose + 10% dialyzed FBS, 0.00702 µM
[26] = RPMI 5 mM glucose + 10% dialyzed FBS, 0.0211 µM
[27] = RPMI 5 mM glucose + 10% dialyzed FBS, 0.0632 µM
[28] = RPMI 5 mM glucose + 10% dialyzed FBS, 0.19 µM
[29] = RPMI 5 mM glucose + 10% dialyzed FBS, 0.569 µM
[30] = RPMI 5 mM glucose + 10% dialyzed FBS, 1.71 µM
[31] = RPMI 5 mM glucose + 10% dialyzed FBS, 5.12 µM
[32] = RPMI 5 mM glucose + 10% dialyzed FBS, 15.4 µM
[33] = RPMI 5 mM glucose + 10% dialyzed FBS, 46.1 µM

Row | SMILES | cell viability [1] [%] | cell viability [2] [%] | cell viability [3] [%] | cell viability [4] [%] | cell viability [5] [%] | cell viability [6] [%] | cell viability [7] [%] | cell viability [8] [%] | cell viability [9] [%] | cell viability [10] [%] | cell viability [11] [%] | cell viability [12] [%] | cell viability [13] [%] | cell viability [14] [%] | cell viability [15] [%] | cell viability [16] [%] | cell viability [17] [%] | cell viability [18] [%] | cell viability [19] [%] | cell viability [20] [%] | cell viability [21] [%] | cell viability [22] [%] | cell viability [23] [%] | cell viability [24] [%] | cell viability [25] [%] | cell viability [26] [%] | cell viability [27] [%] | cell viability [28] [%] | cell viability [29] [%] | cell viability [30] [%] | cell viability [31] [%] | cell viability [32] [%] | cell viability [33] [%]
1 | Cc1ccc(NC(=O)c2ccc(CN3CCN(C)CC3)cc2)cc1Nc1nccc(-c2cccnc2)n1 | 95.2 | 105 | 114 | 116 | 110 | 116 | 105 | 122 | 104 | 95.4 | 109 | 90.6 | 103 | 92.3 | 112 | 120 | 99.6 | 114 | 111 | 104 | 103 | 103 | 96.2 | 100 | 111 | 101 | 105 | 103 | 110 | 94 | 115 | 104 | 117
2 | COc1cc2nccc(Oc3ccc(NC(=O)Nc4cc(C)on4)c(Cl)c3)c2cc1OC | 113 | 117 | 117 | 138 | 108 | 116 | 121 | 130 | 115 | 129 | 87.8 | – | – | – | – | – | – | – | – | – | – | – | 124 | 124 | 119 | 114 | 112 | 115 | 111 | 136 | 112 | 120 | 70.9
3 | Cl.c1cnc2cc3c(cc2n1)C1CNCC3C1 | 107 | 109 | 110 | 103 | 129 | 126 | 135 | 124 | 124 | 122 | 92 | 101 | 105 | 113 | 107 | 112 | 110 | 118 | 104 | 111 | 110 | 79.4 | 99.3 | 98.2 | 105 | 114 | 107 | 121 | 116 | 109 | 103 | 108 | 62.8
4 | C#CCN(C)[C@H](C)Cc1ccccc1 | 88.2 | 89.6 | 88.5 | 87.2 | 76.7 | 79.7 | 85.6 | 83 | 92 | 79.8 | 65.1 | 82.2 | 82.8 | 82 | 85.4 | 77 | 83.9 | 79.4 | 76 | 82.9 | 78.9 | 77.5 | 77.6 | 86.1 | 84.2 | 95.6 | 85 | 94 | 83.5 | 80 | 92.2 | 83.6 | 82.7
5 | C=C(C)[C@@H]1CC[C@]2(C)CC[C@]3(C)[C@H](CC[C@@H]4[C@@]5(C)CC[C@H](O)C(C)(C)[C@@H]5CC[C@]43C)[C@@H]12 | 90.7 | 95.3 | 104 | 123 | 115 | 127 | 109 | 119 | 134 | 117 | 131 | 106 | 111 | 114 | 126 | 121 | 127 | 121 | 115 | 124 | 130 | 115 | 113 | 106 | 111 | 106 | 100 | 113 | 113 | 123 | 123 | 124 | 115
6 | Clc1ccc(C2(c3ccc(-c4cn[nH]c4)cc3)CCNCC2)cc1 | 80.5 | 101 | 111 | 100 | 100 | 98.2 | 96.6 | 91.9 | 69.9 | 63.3 | 62.7 | 80.2 | 81.3 | 86.4 | 83.8 | 90.8 | 89.2 | 98.9 | 77.9 | 77.6 | 65.6 | 55.3 | 86.7 | 99.2 | 83.4 | 93.5 | 99 | 103 | 81.4 | 72.2 | 70.3 | 59.9 | 53.7
7 | O=[N+]([O-])c1cn2c(n1)OC[C@@H](OCc1ccc(OC(F)(F)F)cc1)C2 | – | – | – | – | – | – | – | – | – | – | – | – | – | – | – | – | – | – | – | – | – | – | 120 | 141 | 115 | 126 | 145 | 142 | 148 | 118 | 138 | 139 | 120
8 | CC/1=C/N([C@@H]2C[C@@H](O)[C@H](CO)O2)C(=O)NC1=O | 97.5 | 109 | 89 | 104 | 102 | 101 | 100 | 95.1 | 80.3 | 92.8 | 61.2 | 84.9 | 85.2 | 82 | 83.4 | 88.7 | 99.3 | 79.7 | 88.1 | 90.1 | 83.7 | 66.4 | 80 | 94 | 84.6 | 86.4 | 98.4 | 87.7 | 92.1 | 85 | 75.9 | 94.4 | 62.3
9 | C[N]1C=NC=C1[C@@](N)(C2=CC=C(Cl)C=C2)C3=CC=C4N(C)C(=O)\C=C(\C5=CC=CC(=C5)Cl)C4=C3 | 108 | 98.5 | 112 | 129 | 91.5 | 95.4 | 84.9 | 83.4 | 76.2 | 73.5 | 47.2 | 100 | 95.6 | 95.5 | 93.2 | 102 | 94.2 | 90.3 | 84.8 | 85.4 | 82.6 | 52.8 | 112 | 111 | 121 | 106 | 110 | 97.3 | 97.1 | 87.7 | 80.9 | 67.4 | 41.7
10 | C1Cc2[nH]nc(-c3nn[nH]n3)c2C1 | 128 | 120 | 119 | 139 | 149 | 145 | 131 | 143 | 140 | 145 | 142 | – | – | – | – | – | – | – | – | – | – | – | 122 | 124 | 131 | 139 | 135 | 144 | 137 | 147 | 131 | 145 | 149
11 | CC1(C)[C@@H](O[C@H]2O[C@H](C(=O)O)[C@@H](O)[C@H](O)[C@H]2O[C@@H]2O[C@H](C(=O)O)[C@@H](O)[C@H](O)[C@H]2O)CC[C@]2(C)[C@H]3C(=O)C=C4[C@@H]5C[C@@](C)(C(=O)O)CC[C@]5(C)CC[C@@]4(C)[C@]3(C)CC[C@@H]12 | – | – | – | – | – | – | – | – | – | – | – | – | – | – | – | – | – | – | – | – | – | – | 109 | 123 | 134 | 142 | 154 | 145 | 136 | 160 | 154 | 140 | 161
12 | COC(=O)N1CCN(Cc2cccc(NC(=O)Nc3ccc(C)nc3)c2F)CC1 | 115 | 111 | 111 | 104 | 104 | 100 | 100 | 101 | 102 | 82.4 | 81.9 | 98.5 | 98.8 | 95.2 | 98.8 | 95.7 | 85.7 | 103 | 84.2 | 84.1 | 77.2 | 77.6 | 91.9 | 92.4 | 105 | 104 | 99.6 | 93.5 | 85.6 | 84 | 78.1 | 83.7 | 81.5
13 | Cc1ccc(C(C)(O)c2nc3ccccc3s2)c(C)c1 (configuration not stated) | 88.5 | 124 | 115 | 109 | 130 | 127 | 113 | 132 | 98.3 | 55.7 | 28.8 | 95.7 | 101 | 105 | 113 | 105 | 113 | 110 | 114 | 116 | 52.6 | 21.1 | 107 | 107 | 104 | 113 | 113 | 114 | 108 | 117 | 104 | 100 | 39.2
14 | O=C(NC1CCOCC1)c1ccc(-c2cc(-c3c[nH]nc3-c3ccccn3)ccn2)cc1 | 125 | 99.7 | 110 | 93.6 | 120 | 107 | 114 | 101 | 87.5 | 110 | 108 | 99.4 | 97.6 | 102 | 98.8 | 99.7 | 104 | 93.2 | 87.3 | 93.1 | 104 | 93.8 | 106 | 94.9 | 99.6 | 91.1 | 104 | 92.4 | 95.3 | 104 | 96.7 | 97.8 | 93
15 | Nc1ccccc1NC(=O)c1ccc(CNc2nccc(-c3cccnc3)n2)cc1 | 111 | 115 | 117 | 118 | 119 | 117 | 105 | 72.1 | 23.4 | 9.43 | 9.03 | 90.9 | 113 | 103 | 103 | 122 | 114 | 97.8 | 83.2 | 27.2 | 9.84 | 8.73 | 108 | 117 | 115 | 119 | 132 | 114 | 106 | 74.7 | 24.2 | 12.2 | 10.7
16 | Cc1ccc(NC(=O)C2(c3ccc4c(c3)OC(F)(F)O4)CC2)nc1-c1cccc(C(=O)O)c1 | 107 | 122 | 95.4 | 102 | 98.8 | 53.4 | 19 | 9.04 | 7.86 | 6.36 | 4.68 | 97.6 | 93.2 | 99.6 | 96.9 | 91.6 | 43.4 | 17.4 | 10.2 | 7.42 | 6.77 | 4.07 | 99.8 | 99.8 | 92.1 | 110 | 102 | 56.8 | 27 | 11.4 | 8.3 | 7.38 | 4.48
